Assay results as given in patent US10399974B2, “N2-phenyl-pyrido[3,4-D]pyrimidine-2, 8-diamine derivatives and their use as Mps1 inhibitors” (Cancer Research Technology Limited, priority 2014, dated 2019).

Target: full length MPS1 (Homo sapiens (Human), UniProt P33981)
Assay: Measurement of Inhibition of MPS1 Kinase
Assay type: biochemical
Settings: not given
Description: Measurement of Inhibition of MPS1 Kinase
(5 μM), ATP (10 μM), either DMSO (1% v/v) or the test compound (in the range 0.25 nM-100 μM in 1% DMSO) and assay buffer (50 mM HEPES (pH 7.0), 0.02% NaN3, 0.01% BSA, 0.1 mM Orthovandate, […], 1 μM DTT, Roche protease inhibitor). The reaction was carried out for 60 min at room temperature and stopped by the addition of buffer (10 μl) containing 20 mM EDTA, 0.05% (v/v) Brij-35, in 0.1M HEPES-buffered saline (Free acid, Sigma, UK). The plate was read on a Caliper EZ reader II (Caliper Life Sciences).
The reader provides a Software package (‘Reviewer’) which converts the peak heights into % conversion by measuring both product and substrate peak and also allows selection of control well which represent 0% and 100% inhibition, respectively. The % inhibition of the compounds is calculated relative to the means of selected control wells. IC50s are determined by testing the compounds at a range of concentrations from 0.25 nM-100 μM. The % inhibitions at each concentration are then fitted to a 4 parameter logistic fit: y=(a+((b−a)/(1+((c/x^d)))) where a=asym min, b=asym max, c=IC50 and d=hill coefficient

Chain of full length MPS1 (P33981 whole entry): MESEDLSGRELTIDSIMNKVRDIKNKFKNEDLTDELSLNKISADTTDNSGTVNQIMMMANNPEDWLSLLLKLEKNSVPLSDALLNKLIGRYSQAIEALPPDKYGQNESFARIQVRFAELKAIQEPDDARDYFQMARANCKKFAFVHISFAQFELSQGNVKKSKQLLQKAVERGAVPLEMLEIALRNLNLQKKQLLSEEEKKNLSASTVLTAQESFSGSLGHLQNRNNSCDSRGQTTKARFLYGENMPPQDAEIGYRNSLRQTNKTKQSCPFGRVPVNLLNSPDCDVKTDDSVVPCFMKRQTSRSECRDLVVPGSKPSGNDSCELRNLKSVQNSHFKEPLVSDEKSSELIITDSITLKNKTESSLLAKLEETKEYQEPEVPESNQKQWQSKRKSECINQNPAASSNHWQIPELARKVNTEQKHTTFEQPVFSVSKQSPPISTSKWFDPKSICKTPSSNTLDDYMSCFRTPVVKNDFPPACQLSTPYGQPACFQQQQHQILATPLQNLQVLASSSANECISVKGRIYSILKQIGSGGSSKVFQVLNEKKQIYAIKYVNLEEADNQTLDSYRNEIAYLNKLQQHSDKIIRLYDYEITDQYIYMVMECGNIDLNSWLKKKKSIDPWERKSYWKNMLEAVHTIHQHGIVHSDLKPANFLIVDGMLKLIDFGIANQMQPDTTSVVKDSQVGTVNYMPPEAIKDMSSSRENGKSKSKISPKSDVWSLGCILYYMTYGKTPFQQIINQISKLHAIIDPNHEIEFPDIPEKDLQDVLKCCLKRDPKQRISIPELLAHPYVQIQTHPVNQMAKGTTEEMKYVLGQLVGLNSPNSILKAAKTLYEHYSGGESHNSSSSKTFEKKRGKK

IC50 [nM]	Compound
2	CCOc1cc(-c2nncn2C)ccc1Nc1ncc2cc(C)nc(N3CC(C)(C)C3)c2n1 [Example 29, 8-(3,3-dimethylazetidin-1-yl)-N-(2-ethoxy-4-(4-methyl-4H-1,2,4-triazol-3-yl)phenyl)-6-methylpyrido[3,4-d]pyrimidin-2-amine]

Same assay, conditions: full length MPS1 12.5 nM or 3 nM, H236 peptide 5 μM, ATP 10 μM, 60 min at room temperature, Caliper EZ reader II; read-out: MPS1 IC50

Compound	IC50 [nM]
CCOc1cc(-c2nncn2C)ccc1Nc1ncc2cc(C)nc(N3CC(C)(OC)C3)c2n1 [Example 30, N-(2-ethoxy-4-(4-methyl-4H-1,2,4-triazol-3-yl)phenyl)-8-(3-methoxy-3-methylazetidin-1-yl)-6-methylpyrido[3,4-d]pyrimidin-2-amine]	2
CCOc1cc(-c2nncn2C)ccc1Nc1ncc2cc(C)nc(NCC3(O)CC3)c2n1 [Example 31, 1-(((2-((2-ethoxy-4-(4-methyl-4H-1,2,4-triazol-3-yl)phenyl)amino)-6-methylpyrido[3,4-d]pyrimidin-8-yl)amino)methyl)cyclopropanol]	8
COc1cc(-c2cnc(C)n2C)ccc1Nc1ncc2cc(C)nc(N3CCC(C#N)CC3)c2n1 [Example 34, 1-(2-((4-(1,2-dimethyl-1H-imidazol-5-yl)-2-methoxyphenyl)amino)-6-methylpyrido[3,4-d]pyrimidin-8-yl)piperidine-4-carbonitrile]	3
CCOc1cc(-c2nncn2C)ccc1Nc1ncc2cc(C)nc(N3CC4(CCO4)C3)c2n1 [Example 36, N-(2-ethoxy-4-(4-methyl-4H-1,2,4-triazol-3-yl)phenyl)-6-methyl-8-(1-oxa-6-azaspiro[3.3]heptan-6-yl)pyrido[3,4-d]pyrimidin-2-amine]	2
CCOc1cc(-c2nncn2C)ccc1Nc1ncc2cc(C)nc(N3CCC(C)(O)C3)c2n1 (centres unmarked) [Example 37, 1-(2-((2-ethoxy-4-(4-methyl-4H-1,2,4-triazol-3-yl)phenyl)amino)-6-methylpyrido[3,4-d]pyrimidin-8-yl)-3-methylpyrrolidin-3-ol]	3
CCOc1cc(-c2nncn2C)ccc1Nc1ncc2cc(C)nc(N3CCC(OC)C3)c2n1 (centres unmarked) [Example 39, N-(2-ethoxy-4-(4-methyl-4H-1,2,4-triazol-3-yl)phenyl)-8-(3-methoxypyrrolidin-1-yl)-6-methylpyrido[3,4-d]pyrimidin-2-amine]	3
CCOc1cc(-c2nncn2C)ccc1Nc1ncc2cc(C)nc(N3CC(C(F)(F)F)C3)c2n1 [Example 40, N-(2-ethoxy-4-(4-methyl-4H-1,2,4-triazol-3-yl)phenyl)-6-methyl-8-(3-(trifluoromethyl)azetidin-1-yl)pyrido[3,4-d]pyrimidin-2-amine]	5
CCOc1cc(-c2nncn2C)ccc1Nc1ncc2cc(C)nc(N3CCC3(C)C)c2n1 [Example 42, 8-(2,2-dimethylazetidin-1-yl)-N-(2-ethoxy-4-(4-methyl-4H-1,2,4-triazol-3-yl)phenyl)-6-methylpyrido[3,4-d]pyrimidin-2-amine]	10
CCOc1cc(-c2nncn2C)ccc1Nc1ncc2cc(C)nc(N[C@H](C)C(C)(C)C)c2n1 [Example 53, (R)-N8-(3,3-dimethylbutan-2-yl)-N2-(2-ethoxy-4-(4-methyl-4H-1,2,4-triazol-3-yl)phenyl)-6-methylpyrido[3,4-d]pyrimidine-2,8-diamine]	5
CCOc1cc(-c2nncn2C)ccc1Nc1ncc2cc(C)nc(N[C@@H](C)C(C)(C)C)c2n1 [Example 54, (S)-N8-(3,3-dimethylbutan-2-yl)-N2-(2-ethoxy-4-(4-methyl-4H-1,2,4-triazol-3-yl)phenyl)-6-methylpyrido[3,4-d]pyrimidine-2,8-diamine]	4

Other lines, results leading:

IC50 [nM]	Compound
3	CCOc1cc(-c2nncn2C)ccc1Nc1ncc2cc(C)nc(N3CCC(OC)CC3)c2n1 [Example 46, N-(2-ethoxy-4-(4-methyl-4H-1,2,4-triazol-3-yl)phenyl)-8-(4-methoxypiperidin-1-yl)-6-methylpyrido[3,4-d]pyrimidin-2-amine]
2	CCOc1cc(-c2nncn2C)ccc1Nc1ncc2cc(C)nc(N3CC4CC4C3)c2n1 (centres unmarked) [Example 50, 8-(3-azabicyclo[3.1.0]hexan-3-yl)-N-(2-ethoxy-4-(4-methyl-4H-1,2,4-triazol-3-yl)phenyl)-6-methylpyrido[3,4-d]pyrimidin-2-amine]
6	CCOc1cc(-c2nncn2C)ccc1Nc1ncc2cc(C)nc(N3CC(N(C)C)C3)c2n1 [Example 51, 8-(3-(dimethylamino)azetidin-1-yl)-N-(2-ethoxy-4-(4-methyl-4H-1,2,4-triazol-3-yl)phenyl)-6-methylpyrido[3,4-d]pyrimidin-2-amine]
2	CCOc1cc(-c2nncn2C)ccc1Nc1ncc2cc(C)nc(N3CCC(O)CC3)c2n1 [Example 52, 1-(2-(2-ethoxy-4-(4-methyl-4H-1,2,4-triazol-3-yl)phenylamino)-6-methylpyrido[3,4-d]pyrimidin-8-yl)piperidin-4-ol]
4	CCOc1cc(-c2nncn2C)ccc1Nc1ncc2cc(C)nc(N3CC4(CCC4)C3)c2n1 [Example 55, N-(2-ethoxy-4-(4-methyl-4H-1,2,4-triazol-3-yl)phenyl)-6-methyl-8-(2-azaspiro[3.3]heptan-2-yl)pyrido[3,4-d]pyrimidin-2-amine]
6	CCOc1cc(-c2nncn2C)ccc1Nc1ncc2cc(C)nc(N3CCCC3)c2n1 [Example 56, N-(2-ethoxy-4-(4-methyl-4H-1,2,4-triazol-3-yl)phenyl)-6-methyl-8-(pyrrolidin-1-yl)pyrido[3,4-d]pyrimidin-2-amine]
3	CCOc1cc(-c2nncn2C)ccc1Nc1ncc2cc(C)nc(NCC3COC3)c2n1 [Example 57, N2-(2-ethoxy-4-(4-methyl-4H-1,2,4-triazol-3-yl)phenyl)-6-methyl-N8-(oxetan-3-ylmethyl)pyrido[3,4-d]pyrimidine-2,8-diamine]
518	CCOc1cc(-c2nncn2C)ccc1Nc1ncc2cc(C)nc(NC3CN(C)C3)c2n1 [Example 58, N2-(2-ethoxy-4-(4-methyl-4H-1,2,4-triazol-3-yl)phenyl)-6-methyl-N8-(1-methylazetidin-3-yl)pyrido[3,4-d]pyrimidine-2,8-diamine]
4	CCOc1cc(-c2nncn2C)ccc1Nc1ncc2cc(C)nc(NCC3(OC)CCC3)c2n1 [Example 59, N2-(2-ethoxy-4-(4-methyl-4H-1,2,4-triazol-3-yl)phenyl)-N8-((1-methoxycyclobutyl)methyl)-6-methylpyrido[3,4-d]pyrimidine-2,8-diamine]
3	CCOc1cc(-c2nncn2C)ccc1Nc1ncc2cc(C)nc(N3CC(CC)(OC)C3)c2n1 [Example 60, N-(2-ethoxy-4-(4-methyl-4H-1,2,4-triazol-3-yl)phenyl)-8-(3-ethyl-3-methoxyazetidin-1-yl)-6-methylpyrido[3,4-d]pyrimidin-2-amine]
4	CCOc1cc(-c2nncn2C)ccc1Nc1ncc2cc(C)nc(N3CC(C)(OCC)C3)c2n1 [Example 61, 8-(3-ethoxy-3-methylazetidin-1-yl)-N-(2-ethoxy-4-(4-methyl-4H-1,2,4-triazol-3-yl)phenyl)-6-methylpyrido[3,4-d]pyrimidin-2-amine]
16	Cc1cc2cnc(Nc3ccc(-c4nncn4C)cc3OC(F)F)nc2c(N2CC(C)(C)C2)n1 [Example 62, N-(2-(difluoromethoxy)-4-(4-methyl-4H-1,2,4-triazol-3-yl)phenyl)-8-(3,3-dimethylazetidin-1-yl)-6-methylpyrido[3,4-d]pyrimidin-2-amine]
